Measurements: ChEMBL document CHEMBL3784934, “N-Alkylpyrido[1',2':1,5]pyrazolo-[4,3-d]pyrimidin-4-amines: A new series of negative allosteric modulators of mGlu1/5 with CNS exposure in rodents” (Bioorg Med Chem Lett, 2016)
Blank lines part the entries; values can stand above or below the molecule they belong to. Activity calls are given as the source filed them. The rule behind the calls is not given here.

How the values were obtained:
[1] = biological target: Metabotropic glutamate receptor 5 (Rattus norvegicus, UniProt P31424); assay: Negative allosteric modulation of rat mGluR5 expressed in HEK293 cells assessed as inhibition of glutamate induced calcium mobilization by calcium mobilization assay; format: functional, cell-based
Metabotropic glutamate receptor 5 (Rattus norvegicus, UniProt P31424), sequence (P31424 whole entry): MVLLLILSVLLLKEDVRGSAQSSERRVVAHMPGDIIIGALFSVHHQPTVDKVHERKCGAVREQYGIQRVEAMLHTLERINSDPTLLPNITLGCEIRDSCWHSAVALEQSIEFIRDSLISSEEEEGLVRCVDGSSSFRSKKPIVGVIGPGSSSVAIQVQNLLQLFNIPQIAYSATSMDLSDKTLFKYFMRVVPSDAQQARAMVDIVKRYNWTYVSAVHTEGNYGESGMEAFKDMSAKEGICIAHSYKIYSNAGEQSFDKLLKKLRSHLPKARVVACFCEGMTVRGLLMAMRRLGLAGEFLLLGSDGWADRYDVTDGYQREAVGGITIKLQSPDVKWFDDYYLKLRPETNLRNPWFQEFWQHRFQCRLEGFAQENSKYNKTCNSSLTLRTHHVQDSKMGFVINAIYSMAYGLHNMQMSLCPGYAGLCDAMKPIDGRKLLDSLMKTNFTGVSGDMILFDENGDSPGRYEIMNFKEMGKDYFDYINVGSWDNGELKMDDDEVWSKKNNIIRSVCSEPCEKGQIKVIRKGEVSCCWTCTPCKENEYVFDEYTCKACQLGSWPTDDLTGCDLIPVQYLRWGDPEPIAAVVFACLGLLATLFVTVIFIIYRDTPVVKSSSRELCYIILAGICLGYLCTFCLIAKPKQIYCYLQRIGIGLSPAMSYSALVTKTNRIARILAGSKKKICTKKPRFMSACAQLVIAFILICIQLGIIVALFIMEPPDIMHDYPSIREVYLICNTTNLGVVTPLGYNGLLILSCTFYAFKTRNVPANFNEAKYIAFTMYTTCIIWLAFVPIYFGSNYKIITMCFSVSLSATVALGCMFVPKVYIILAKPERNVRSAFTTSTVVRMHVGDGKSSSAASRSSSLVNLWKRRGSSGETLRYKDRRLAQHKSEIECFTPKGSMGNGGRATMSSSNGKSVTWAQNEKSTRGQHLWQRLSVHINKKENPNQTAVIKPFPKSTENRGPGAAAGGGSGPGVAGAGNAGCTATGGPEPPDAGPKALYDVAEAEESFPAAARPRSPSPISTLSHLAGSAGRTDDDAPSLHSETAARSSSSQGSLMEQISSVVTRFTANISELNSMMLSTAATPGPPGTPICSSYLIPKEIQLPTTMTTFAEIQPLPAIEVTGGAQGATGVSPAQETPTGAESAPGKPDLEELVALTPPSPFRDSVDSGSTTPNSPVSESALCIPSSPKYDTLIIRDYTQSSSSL

[2] = biological target: Metabotropic glutamate receptor 1 (Rattus norvegicus, UniProt P23385); assay: Negative allosteric modulation of rat mGluR1 expressed in HEK293 cells assessed as inhibition of glutamate induced calcium mobilization by calcium mobilization assay; format: functional, cell-based
Metabotropic glutamate receptor 1 (Rattus norvegicus, UniProt P23385), sequence (P23385 whole entry): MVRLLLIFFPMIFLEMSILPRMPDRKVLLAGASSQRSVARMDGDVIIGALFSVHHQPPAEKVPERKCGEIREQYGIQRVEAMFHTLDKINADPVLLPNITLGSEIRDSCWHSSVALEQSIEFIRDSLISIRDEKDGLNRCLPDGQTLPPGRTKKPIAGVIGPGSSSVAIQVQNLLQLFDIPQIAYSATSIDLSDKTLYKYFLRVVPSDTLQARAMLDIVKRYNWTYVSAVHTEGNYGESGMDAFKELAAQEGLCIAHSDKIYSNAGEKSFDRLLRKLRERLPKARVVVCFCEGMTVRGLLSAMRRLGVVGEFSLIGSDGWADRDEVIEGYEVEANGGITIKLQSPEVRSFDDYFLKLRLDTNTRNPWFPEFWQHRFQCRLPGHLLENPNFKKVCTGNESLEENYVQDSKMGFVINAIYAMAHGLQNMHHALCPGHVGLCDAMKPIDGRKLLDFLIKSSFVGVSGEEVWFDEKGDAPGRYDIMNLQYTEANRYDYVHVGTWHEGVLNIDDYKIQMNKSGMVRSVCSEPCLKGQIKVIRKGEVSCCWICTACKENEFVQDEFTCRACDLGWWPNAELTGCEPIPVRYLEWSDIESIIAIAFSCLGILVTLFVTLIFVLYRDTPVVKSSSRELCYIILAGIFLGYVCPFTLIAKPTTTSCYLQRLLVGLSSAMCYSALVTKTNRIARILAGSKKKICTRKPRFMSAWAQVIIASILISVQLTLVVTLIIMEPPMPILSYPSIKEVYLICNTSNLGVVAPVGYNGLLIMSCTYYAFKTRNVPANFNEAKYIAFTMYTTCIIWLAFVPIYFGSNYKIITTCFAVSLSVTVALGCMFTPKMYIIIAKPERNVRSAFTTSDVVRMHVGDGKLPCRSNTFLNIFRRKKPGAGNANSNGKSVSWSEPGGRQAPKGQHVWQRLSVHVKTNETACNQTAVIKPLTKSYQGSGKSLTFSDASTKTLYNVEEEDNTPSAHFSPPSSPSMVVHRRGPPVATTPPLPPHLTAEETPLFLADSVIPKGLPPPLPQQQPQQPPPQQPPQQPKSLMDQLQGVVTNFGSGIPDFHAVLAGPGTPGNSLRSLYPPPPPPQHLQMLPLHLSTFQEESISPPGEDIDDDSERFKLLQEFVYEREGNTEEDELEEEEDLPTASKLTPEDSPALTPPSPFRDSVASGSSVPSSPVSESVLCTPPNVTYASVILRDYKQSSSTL

[3] = biological target: Metabotropic glutamate receptor 1 (Rattus norvegicus) (UniProt P23385); assay: Negative allosteric modulation of rat mGluR1 expressed in HEK293 cells assessed as calcium mobilization at 30 uM by calcium mobilization assay relative to 100 uM glutamate; format: functional, cell-based
Metabotropic glutamate receptor 1 (Rattus norvegicus), sequence (P23385 19-1199 limits assumed): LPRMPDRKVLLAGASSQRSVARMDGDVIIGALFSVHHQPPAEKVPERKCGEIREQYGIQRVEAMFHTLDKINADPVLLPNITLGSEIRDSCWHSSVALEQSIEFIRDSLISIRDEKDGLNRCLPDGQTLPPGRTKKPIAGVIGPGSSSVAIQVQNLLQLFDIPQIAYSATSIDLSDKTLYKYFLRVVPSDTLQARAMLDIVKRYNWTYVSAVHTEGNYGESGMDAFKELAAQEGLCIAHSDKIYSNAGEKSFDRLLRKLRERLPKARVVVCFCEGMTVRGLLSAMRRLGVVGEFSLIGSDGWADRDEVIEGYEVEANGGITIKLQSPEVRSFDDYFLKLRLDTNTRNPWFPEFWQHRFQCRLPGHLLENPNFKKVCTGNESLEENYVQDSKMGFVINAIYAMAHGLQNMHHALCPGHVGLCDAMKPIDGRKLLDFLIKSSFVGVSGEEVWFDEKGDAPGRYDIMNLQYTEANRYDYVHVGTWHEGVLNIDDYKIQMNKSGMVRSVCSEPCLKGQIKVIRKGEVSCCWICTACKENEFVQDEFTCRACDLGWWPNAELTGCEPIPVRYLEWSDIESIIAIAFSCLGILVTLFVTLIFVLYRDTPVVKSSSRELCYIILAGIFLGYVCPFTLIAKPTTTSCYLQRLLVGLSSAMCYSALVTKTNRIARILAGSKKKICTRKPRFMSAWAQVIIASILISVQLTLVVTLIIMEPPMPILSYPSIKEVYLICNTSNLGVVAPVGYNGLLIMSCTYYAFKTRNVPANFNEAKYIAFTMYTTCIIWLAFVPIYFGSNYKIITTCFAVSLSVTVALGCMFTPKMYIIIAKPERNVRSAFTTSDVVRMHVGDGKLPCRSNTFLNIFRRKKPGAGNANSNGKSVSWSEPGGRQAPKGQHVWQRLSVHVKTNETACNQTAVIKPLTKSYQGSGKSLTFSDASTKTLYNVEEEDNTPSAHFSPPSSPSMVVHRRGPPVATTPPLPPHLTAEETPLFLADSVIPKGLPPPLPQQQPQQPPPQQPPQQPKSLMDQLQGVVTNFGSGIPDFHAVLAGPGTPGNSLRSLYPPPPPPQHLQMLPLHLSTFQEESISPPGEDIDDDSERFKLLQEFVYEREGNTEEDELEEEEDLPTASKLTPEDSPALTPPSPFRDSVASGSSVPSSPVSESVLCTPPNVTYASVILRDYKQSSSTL

[4] = biological target: Metabotropic glutamate receptor 5 (Rattus norvegicus) (UniProt P31424); assay: Negative allosteric modulation of rat mGluR5 expressed in HEK293 cells assessed as calcium mobilization at 30 uM by calcium mobilization assay relative to 100 uM glutamate; format: functional, cell-based
Metabotropic glutamate receptor 5 (Rattus norvegicus), sequence (P31424 21-1203 limits assumed): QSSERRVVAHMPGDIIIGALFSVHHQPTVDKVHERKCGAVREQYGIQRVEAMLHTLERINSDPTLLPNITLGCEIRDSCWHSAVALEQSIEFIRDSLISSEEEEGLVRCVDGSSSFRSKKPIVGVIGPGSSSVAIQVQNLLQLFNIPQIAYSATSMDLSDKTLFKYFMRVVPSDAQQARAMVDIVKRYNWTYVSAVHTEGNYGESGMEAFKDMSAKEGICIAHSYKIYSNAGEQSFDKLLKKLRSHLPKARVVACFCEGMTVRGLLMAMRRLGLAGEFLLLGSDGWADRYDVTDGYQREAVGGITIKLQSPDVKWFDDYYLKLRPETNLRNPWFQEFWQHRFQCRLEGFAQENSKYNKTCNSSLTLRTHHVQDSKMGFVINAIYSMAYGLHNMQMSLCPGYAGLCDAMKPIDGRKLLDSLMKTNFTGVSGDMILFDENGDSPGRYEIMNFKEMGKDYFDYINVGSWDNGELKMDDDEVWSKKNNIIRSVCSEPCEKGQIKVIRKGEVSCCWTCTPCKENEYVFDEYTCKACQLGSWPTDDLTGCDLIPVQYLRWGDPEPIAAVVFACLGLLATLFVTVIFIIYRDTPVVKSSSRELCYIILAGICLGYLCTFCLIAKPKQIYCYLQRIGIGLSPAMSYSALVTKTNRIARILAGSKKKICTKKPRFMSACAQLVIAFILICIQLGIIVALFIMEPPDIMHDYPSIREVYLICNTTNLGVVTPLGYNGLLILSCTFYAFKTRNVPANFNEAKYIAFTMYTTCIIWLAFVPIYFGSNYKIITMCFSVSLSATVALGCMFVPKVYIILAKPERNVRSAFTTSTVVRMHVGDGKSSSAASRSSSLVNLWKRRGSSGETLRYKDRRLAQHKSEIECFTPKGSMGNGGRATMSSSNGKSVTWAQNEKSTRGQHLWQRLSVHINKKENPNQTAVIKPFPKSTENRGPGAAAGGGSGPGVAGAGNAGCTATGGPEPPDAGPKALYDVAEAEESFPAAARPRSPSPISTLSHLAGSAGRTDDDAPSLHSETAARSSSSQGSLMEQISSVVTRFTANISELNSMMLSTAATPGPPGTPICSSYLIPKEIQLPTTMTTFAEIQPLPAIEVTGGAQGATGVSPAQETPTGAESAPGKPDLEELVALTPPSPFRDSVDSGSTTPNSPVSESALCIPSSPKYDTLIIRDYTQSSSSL

[5] = Ratio of drug level in brain to plasma of CD-1 mouse at 30 mg/kg measured at 30 mins post dose; format: ADME, organism-based; details: 0.5 h
[6] = biological target: Serine/threonine-protein kinase 17A (Homo sapiens) (UniProt Q9UEE5); assay: Inhibition of human DRAK1 at 10 uM
[7] = biological target: Adenosine receptor A3 (Homo sapiens) (UniProt P0DMS8); assay: Inhibition of recombinant human Adenosine A3 receptor expressed in CHOK1 cells at 10 uM by radioligand binding assay; details: CHO-K1
[8] = biological target: TRAF2 and NCK-interacting protein kinase (Homo sapiens) (UniProt Q9UKE5); assay: Inhibition of human TNIK at 10 uM
Cytochrome P450 1A2 = Cytochrome P450 1A2 (Homo sapiens, UniProt P05177); assay: Inhibition of CYP1A2 in human liver microsomes in presence of NADPH; format: ADME
[9] = Cmax in Sprague-Dawley rat at 10 mg/kg, ip; format: ADME, organism-based; design: dose 10 mg/kg, route intraperitoneal; details: in vivo
[10] = Unbound brain to plasma ratio in rat at 0.2 mg/kg measured at 15 mins post dose; format: ADME, organism-based; details: 0.25 h
[11] = biological target: Adenosine receptor A2a (Homo sapiens) (UniProt P29274); assay: Inhibition of recombinant human Adenosine A2A receptor expressed in HEK293 cells at 10 uM by radioligand binding assay; format: cell-based
[12] = Cmax in CD-1 mouse at 30 mg/kg, ip; format: ADME, organism-based; design: dose 30 mg/kg, route intraperitoneal; details: in vivo
[13] = Tmax in Sprague-Dawley rat at 10 mg/kg, ip; format: ADME, organism-based; details: in vivo
[14] = Plasma clearance in Sprague-Dawley rat at 0.2 mg/kg, iv; format: ADME, organism-based
[15] = AUC in CD-1 mouse at 30 mg/kg, ip; format: ADME, organism-based; details: in vivo
[16] = Tmax in CD-1 mouse at 30 mg/kg, ip; format: ADME, organism-based; details: in vivo
[17] = biological target: Sodium-dependent noradrenaline transporter (Homo sapiens) (UniProt P23975); assay: Inhibition of recombinant human norepinephrine transporter expressed in MDCK cells at 10 uM by radioligand binding assay; format: cell-based
[18] = biological target: Metabotropic glutamate receptor 3 (Rattus norvegicus) (UniProt P31422); assay: Activity at rat mGluR3 expressed in HEK293-GIRK cells assessed as effect on glutamate-induced response by thallium flux assay; format: cell-based
Cytochrome P450 3A4 = Cytochrome P450 3A4 (Homo sapiens, UniProt P08684); assay: Inhibition of CYP3A4 in human liver microsomes in presence of NADPH; format: ADME
[19] = biological target: Metabotropic glutamate receptor 2 (Rattus norvegicus) (UniProt P31421); assay: Activity at rat mGluR2 expressed in HEK293-GIRK cells assessed as effect on glutamate-induced response by thallium flux assay; format: cell-based
[20] = biological target: SRSF protein kinase 2 (Homo sapiens) (UniProt P78362); assay: Inhibition of human SRPK2 at 10 uM
[21] = biological target: Casein kinase I isoform epsilon (Homo sapiens) (UniProt P49674); assay: Inhibition of human CK1epsilon at 10 uM
Cytochrome P450 2D6 = Cytochrome P450 2D6 (Homo sapiens, UniProt P10635); assay: Inhibition of CYP2D6 in human liver microsomes in presence of NADPH; format: ADME
[22] = biological target: Metabotropic glutamate receptor 8 (Rattus norvegicus) (UniProt P70579); assay: Activity at rat mGluR8 expressed in HEK293-GIRK cells assessed as effect on glutamate-induced response by thallium flux assay; format: cell-based
[23] = Unbound brain to plasma ratio in CD-1 mouse at 30 mg/kg, ip measured at 30 mins post dose; format: ADME, organism-based; details: 0.5 h
[24] = biological target: SRSF protein kinase 1 (Homo sapiens) (UniProt Q96SB4); assay: Inhibition of human SRPK1 at 10 uM
[25] = Fraction unbound in mouse brain by equilibrium dialysis assay; format: ADME, tissue-based
Rattus norvegicus = organism: Rattus norvegicus; assay: Inhibition of rat brain sodium channel, site 2 at 10 uM by radioligand binding assay
[26] = Half life in Sprague-Dawley rat at 0.2 mg/kg, iv; format: ADME, organism-based; details: in vivo
Plasma = assay: Fraction unbound in rat plasma by equilibrium dialysis assay; format: ADME, cell-free
[27] = Fraction unbound in mouse plasma by equilibrium dialysis assay; format: ADME, cell-free
[28] = biological target: Metabotropic glutamate receptor 7 (Rattus norvegicus) (UniProt P35400); assay: Activity at rat mGluR7 expressed in HEK293-GIRK cells assessed as effect on glutamate-induced response by thallium flux assay; format: cell-based
[29] = biological target: Casein kinase I isoform alpha (Homo sapiens) (UniProt P48729); assay: Inhibition of human CK1alpha1 at 10 uM
Casein kinase I isoform alpha (Homo sapiens), sequence (P48729 2-337 limits assumed): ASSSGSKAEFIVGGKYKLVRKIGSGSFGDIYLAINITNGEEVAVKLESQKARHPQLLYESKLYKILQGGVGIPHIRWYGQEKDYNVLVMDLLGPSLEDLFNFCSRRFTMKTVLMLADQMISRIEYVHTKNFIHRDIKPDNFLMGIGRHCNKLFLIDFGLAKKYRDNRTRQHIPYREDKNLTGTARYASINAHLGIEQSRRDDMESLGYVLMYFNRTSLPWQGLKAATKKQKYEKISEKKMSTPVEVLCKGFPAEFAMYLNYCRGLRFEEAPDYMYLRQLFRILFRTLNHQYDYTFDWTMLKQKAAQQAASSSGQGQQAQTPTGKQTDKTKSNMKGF

Cytochrome P450 2C9 = Cytochrome P450 2C9 (Homo sapiens, UniProt P11712); assay: Inhibition of CYP2C9 in human liver microsomes in presence of NADPH; format: ADME
[30] = AUC in Sprague-Dawley rat at 10 mg/kg, ip; format: ADME, organism-based; details: in vivo
[31] = biological target: Casein kinase I isoform gamma-2 (Homo sapiens) (UniProt P78368); assay: Inhibition of human CK1gamma2 at 10 uM
[32] = biological target: Metabotropic glutamate receptor 4 (Rattus norvegicus) (UniProt P31423); assay: Activity at rat mGluR4 expressed in HEK293-GIRK cells assessed as effect on glutamate-induced response by thallium flux assay; format: cell-based
[33] = Ratio of drug level in brain to plasma of rat at 0.2 mg/kg measured at 15 mins post dose; format: ADME, organism-based; details: 0.25 h
[34] = biological target: 5-hydroxytryptamine receptor 2B (Homo sapiens) (UniProt P41595); assay: Inhibition of recombinant human 5-HT2B receptor expressed in CHOK1 cells at 10 uM by radioligand binding assay; format: cell-based; details: CHO-K1
[35] = biological target: Adenosine receptor A1 (Homo sapiens) (UniProt P30542); assay: Inhibition of recombinant human Adenosine A1 receptor expressed in CHO cells at 10 uM by radioligand binding assay; format: cell-based
[36] = Fraction unbound in rat brain by equilibrium dialysis assay; format: ADME, tissue-based
[37] = biological target: Metabotropic glutamate receptor 6 (Rattus norvegicus) (UniProt P35349); assay: Activity at rat mGluR6 expressed in HEK293-GIRK cells assessed as effect on glutamate-induced response by thallium flux assay; format: cell-based
[38] = biological target: Casein kinase I isoform delta (Homo sapiens) (UniProt P48730); assay: Inhibition of human CK1delta at 10 uM
[39] = biological target: Metabotropic glutamate receptor 1 (Homo sapiens, UniProt Q13255); assay: Negative allosteric modulation activity at recombinant human mGluR1a expressed in CHO cells assessed as inhibition of L-glutamate-induced intracellular Ca2+ mobilization; format: functional, cell-based
[40] = biological target: Metabotropic glutamate receptor 5 (Homo sapiens, UniProt P41594); assay: Negative allosteric modulation activity at recombinant human mGluR5a expressed in CHO cells assessed as inhibition of L-glutamate-induced intracellular Ca2+ mobilization; format: functional, cell-based

- IC50 ([1]; read-out: IC50): > 30 µM
- IC50 ([1]; read-out: pIC50 (converted)): > 31.6 µM
- IC50 [2]: 0.484 µM
- %max [3]: 2.4%
Structure (SMILES): OC12CC3CC(C1)CC(Nc1ncnc4c1nn1ccccc41)(C3)C2

- IC50 ([1]; read-out: IC50): > 30 µM
- IC50 ([1]; read-out: pIC50 (converted)): > 31.6 µM
- IC50 [2]: > 30 µM
Structure (SMILES): C[C@H](Nc1ncnc2c1nn1ccccc21)C1CC1

- %max [4]: 18.4%
- pIC50 ([1]; hek293): < 5
- IC50 ([1]; read-out: IC50): > 10 µM
- %max [3]: 2.4%
Structure (SMILES): C[C@@H](Nc1ncnc2c1nn1ccccc21)C1CCCCC1

- %max [4]: 2%
- IC50 ([1]; read-out: IC50): 2.27 µM
- IC50 [2]: 0.093 µM
- %max [3]: 2%
Structure (SMILES): C[C@H]1CC[C@H](Nc2ncnc3c2nn2ccccc32)CC1

- %max [4]: 2.3%
- IC50 ([1]; read-out: IC50): 2.09 µM
- IC50 [2]: 0.233 µM
- %max [3]: 3.1%
Structure (SMILES): C[C@@H]1[C@@H](Nc2ncnc3c2nn2ccccc32)C[C@H]2C[C@@H]1C2(C)C

Structure (SMILES): CC1(C)CCC(Nc2ncnc3c2nn2ccccc32)CC1
- Kp [5]: 3.3
- inhibition [6]: 52.9%
- inhibition [7]: 63%
- inhibition [8]: 58.8%
- IC50 (Cytochrome P450 1A2): 9.6 µM
- Cmax [9]: 2300 nM
- K(p,uu,brain) [10]: 1.1
- inhibition [11]: 94%
- Cmax [12]: 3000 nM
- Tmax [13]: 15 min
- %max [4]: 1.6%
- clearance [14]: 98 mL/min/kg
- IC50 ([1]; read-out: IC50): 0.129 µM
- AUC [15]: 2.86 µM·h
- Tmax [16]: 20 min
- inhibition [17]: 65%
- Activity [18]: inactive
- IC50 [2]: 0.069 µM
- IC50 (Cytochrome P450 3A4): > 30 µM
- Activity [19]: inactive
- inhibition [20]: 75.2%
- inhibition [21]: 75.9%
- IC50 (Cytochrome P450 2D6): > 30 µM
- Activity [22]: inactive
- K(p,uu,brain) [23]: 1.3
- inhibition [24]: 79.4%
- fraction unbound [25]: 0.01
- inhibition (Rattus norvegicus): 55%
- half-life [26]: 34 min
- Fu (Plasma): 0.037
- Fu [27]: 0.025
- Activity [28]: inactive
- inhibition [29]: 65.3%
- IC50 (Cytochrome P450 2C9): > 30 µM
- AUC [30]: 3.23 µM·h
- inhibition [31]: 50.4%
- Activity [32]: inactive
- Kp [33]: 5.3
- inhibition [34]: 65%
- inhibition [35]: 92%
- fraction unbound [36]: 0.008
- Activity [37]: inactive
- inhibition [38]: 85.1%
- %max [3]: 2.9%

- IC50 ([1]; read-out: IC50): > 30 µM
- IC50 ([1]; read-out: pIC50 (converted)): > 31.6 µM
- IC50 [2]: > 30 µM
Structure (SMILES): CN(C)c1nc(N[C@H]2CC[C@H](C)CC2)c2nn3ccccc3c2n1

- IC50 [39]: 0.028 µM
- IC50 [40]: > 9.1 µM
Structure (SMILES): OCCSc1nc2c(c(NC3Cc4ccccc4C3)n1)CCCC2

- IC50 ([1]; read-out: IC50): > 30 µM
- IC50 ([1]; read-out: pIC50 (converted)): > 31.6 µM
- %max [3]: 2.6%
Structure (SMILES): Cc1nc(N[C@H]2CC[C@H](C)CC2)c2nn3ccccc3c2n1

- IC50 ([1]; read-out: IC50): > 30 µM
- IC50 ([1]; read-out: pIC50 (converted)): > 31.6 µM
- IC50 [2]: > 30 µM
Structure (SMILES): CNc1nc(N[C@H]2CC[C@H](C)CC2)c2nn3ccccc3c2n1

- IC50 ([1]; read-out: IC50): > 30 µM
- IC50 ([1]; read-out: pIC50 (converted)): > 31.6 µM
- IC50 [2]: > 10 µM
- %max [3]: 39%
Structure (SMILES): FC1(F)CCC(Nc2ncnc3c2nn2ccccc32)CC1

- IC50 ([1]; read-out: IC50): > 30 µM
- IC50 ([1]; read-out: pIC50 (converted)): > 31.6 µM
- %max [3]: 2.2%
Structure (SMILES): C[C@@H](Nc1ncnc2c1nn1ccccc21)C(C)(C)C

- IC50 ([1]; read-out: IC50): > 30 µM
- IC50 ([1]; read-out: pIC50 (converted)): > 31.6 µM
- IC50 [2]: 5.6 µM
- %max [3]: 0.58%
Structure (SMILES): C[C@H]1CC[C@H](Nc2nc(N)nc3c2nn2ccccc32)CC1

- %max [4]: 17.2%
- IC50 [2]: 0.247 µM
- %max [3]: 2.1%
Structure (SMILES): c1ccc2c(c1)CC(Nc1ncnc3c1nn1ccccc31)C2

- IC50 [2]: 0.759 µM
- %max [3]: 2.4%
Structure (SMILES): Cc1nc(N[C@@H]2C[C@@H]3C[C@H]([C@H]2C)C3(C)C)c2nn3ccccc3c2n1

- IC50 ([1]; read-out: IC50): > 30 µM
- IC50 ([1]; read-out: pIC50 (converted)): > 31.6 µM
- %max [3]: 7.1%
Structure (SMILES): CC1(C)[C@@H]2CC[C@]1(C)[C@@H](Nc1ncnc3c1nn1ccccc31)C2
